The structures appear in SMILES notation. Where two headings read alike, the source gives them in different places.

Broadly, the inhibition is the change of the read-out against control, counted positive when it falls. Low readings indicate a weak effect, high ones a strong effect.

Common to all, as to type: cell-based
The subject of one test is Aβ-38. The experiment in a line: MSD Human (6E10) Ab 3-PLEX elisa, conditioned media of 2B7 cells: Aβ-38. Particulars: Homo sapiens, Aβ-38 (superscript a). Put shortly:
(§1)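 Cells grown to confluence, washed, then exposed to diluted compound (1% DMSO) for 5 hours at 37° C. Collected media mixed 1:1 with blocking buffer and added to capture plates with detection antibody. After overnight incubation at 4 degrees C, wells washed and read on MSD imager.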

The test system of the next test is Aβ-42. The experiment in a line: MSD Human (6E10) Ab 3-PLEX elisa, conditioned media of 2B7 cells: Aβ-42. The following applies: Homo sapiens; for IC50: Aβ-42 (superscript c); for inhibition at 20 µM: Aβ-42, 20 μM. Put shortly: as §1
The next test relates to Aβ-40. The experiment in a line: MSD Human (6E10) Ab 3-PLEX elisa, conditioned media of 2B7 cells: Aβ-40. The following applies: for IC50 / inhibition at 20 µM: Homo sapiens; for IC50: Aβ-40 (superscript b). Summed up:
as §1

Turning to `CCO[C@@H](C1C[C@@H](C)[C@H]2C(O1)[C@H](O)[C@@]1(C)C3CC[C@H]4C(C)(C)C(O[C@H]5CN([C@@H](C)C(=O)O)CCO5)CC[C@@]45C[C@@]35CC[C@]21C)C(C)(C)O` (stereo partly drawn), the IC50 is less than 1000 nM with Aβ-38 (read-out: 50% reduction value), less than 1000 nM with Aβ-42 (read-out: 50% reduction value), less than 1000 nM in the test on Aβ-42 (read-out: IC50 range) and greater than 10000 nM in the test on Aβ-40 (read-out: 50% reduction value).
`CCO[C@@H]([C@H]1C[C@@H](C)[C@H]2[C@H](O1)[C@H](O)[C@@]1(C)C3CC[C@H]4C(C)(C)C(OC(=O)N5CCC5)CC[C@@]45C[C@@]35CC[C@]21C)C(C)(C)O` (stereo partly drawn): the IC50 was less than 1000 nM in the test with Aβ-38 (read-out: 50% reduction value), 1000 to 10000 nM in the test on Aβ-38 (read-out: IC50 range), less than 1000 nM with Aβ-42 (read-out: 50% reduction value) and less than 1000 nM in the test on Aβ-42 (read-out: IC50 range). The “% Inh. (range)” value in the test with Aβ-40 (Aβ-40, 20 μM) is given as “E/F^b (20 μM)”.
On to `CCO[C@@H]([C@H]1C[C@@H](C)[C@H]2[C@H](O1)[C@H](O)[C@@]1(C)C3CC[C@H]4C(C)(C)C(OC(=O)NC5COC5)CC[C@@]45C[C@@]35CC[C@]21C)C(C)(C)O` (stereo partly drawn), for which the IC50 with Aβ-38 (read-out: 50% reduction value) is less than 1000 nM; in the test on Aβ-42 (read-out: 50% reduction value), less than 1000 nM; in the test with Aβ-42 (read-out: IC50 range), less than 1000 nM; in the test on Aβ-40 (read-out: 50% reduction value), 1000 to 10000 nM.
With `CCO[C@@H]([C@H]1C[C@@H](C)[C@H]2[C@H](O1)[C@H](O)[C@@]1(C)C3CC[C@H]4C(C)(C)C(OC(=O)NC5CNC5)CC[C@@]45C[C@@]35CC[C@]21C)C(C)(C)O` (stereo partly drawn), the IC50 is less than 1000 nM in the test on Aβ-38 (read-out: 50% reduction value); less than 1000 nM in the test on Aβ-42 (read-out: 50% reduction value); less than 1000 nM in the test on Aβ-42 (read-out: IC50 range); 1000 to 10000 nM in the test on Aβ-40 (read-out: 50% reduction value); greater than 10000 nM in the test with Aβ-40 (read-out: IC50 range).
For the compound `CCS[C@@H](C1C[C@@H](C)C2C(O1)[C@H](O)[C@@]1(C)C3CC[C@H]4C(C)(C)C(O[C@H]5CN(C6COC6)CCO5)CC[C@@]45C[C@@]35CC[C@]21C)C(C)(C)O` (stereo partly drawn), the IC50 in the test with Aβ-38 (read-out: 50% reduction value) is 1000 to 10000 nM; in the test with Aβ-40 (read-out: 50% reduction value) it was greater than 10000 nM. For the same compound, in the test on Aβ-42, the inhibition at 20 µM was 25 to 75%.
As for `CC(C)OC(C)(C)[C@H](O)C1C[C@@H](C)[C@H]2C(O1)[C@H](O)[C@@]1(C)C3CC[C@H]4C(C)(C)C(O)CC[C@@]45C[C@@]35CC[C@]21C` (stereo partly drawn), the results for the IC50 in the test with Aβ-38 (read-out: 50% reduction value) and with Aβ-40 (read-out: 50% reduction value) were 1000 to 10000 nM and greater than 10000 nM, respectively. Further, the inhibition at 20 µM in the test with Aβ-42 lay in the range of 25 to 75%.
For `CCOC(C)(C)[C@H](O)C1C[C@@H](C)[C@H]2C(O1)[C@H](O)[C@@]1(C)C3CC[C@H]4C(C)(C)C(O)CC[C@@]45C[C@@]35CC[C@]21C` (stereo partly drawn) the same measures were 1000 to 10000 nM, greater than 10000 nM and less than 25%.
For `CC(C)C(=O)N1CCOC(OC2CC[C@]34C[C@]35CC[C@]3(C)[C@@H]6C(OC([C@H](OC(=O)N7CCC7)C(C)C)C[C@H]6C)[C@H](O)[C@@]3(C)C5CC[C@H]4C2(C)C)C1` (stereo partly drawn), the IC50 with Aβ-38 (read-out: 50% reduction value) is less than 1000 nM; in the test with Aβ-38 (read-out: IC50 range), less than 1000 nM; in the test with Aβ-42 (read-out: 50% reduction value), less than 1000 nM; in the test on Aβ-42 (read-out: IC50 range), less than 1000 nM; with Aβ-40 (read-out: 50% reduction value) it was 1000 to 10000 nM; in the test on Aβ-40 (read-out: IC50 range), greater than 10000 nM.
Take `CC(C)CC(=O)N1CCOC(OC2CC[C@]34C[C@]35CC[C@]3(C)[C@@H]6C(OC([C@H](OC(=O)N7CCC7)C(C)C)C[C@H]6C)[C@H](O)[C@@]3(C)C5CC[C@H]4C2(C)C)C1` (stereo partly drawn): the IC50 in the test with Aβ-38 (read-out: 50% reduction value), with Aβ-38 (read-out: IC50 range), in the test with Aβ-42 (read-out: 50% reduction value), in the test on Aβ-42 (read-out: IC50 range), in the test on Aβ-40 (read-out: 50% reduction value) and in the test with Aβ-40 (read-out: IC50 range) was 1000 to 10000 nM in each case.
On to `CC(C)[C@@H](OC(=O)N1CCC1)C1C[C@@H](C)[C@H]2C(O1)[C@H](O)[C@@]1(C)C3CC[C@H]4C(C)(C)C(OC(=O)N5CC(NCC(F)(F)F)C5)CC[C@@]45C[C@@]35CC[C@]21C` (stereo partly drawn), for which the values for the IC50 in the test on Aβ-38 (read-out: 50% reduction value), with Aβ-42 (read-out: 50% reduction value) and with Aβ-40 (read-out: 50% reduction value) were 1000 to 10000 nM, less than 1000 nM and greater than 10000 nM, respectively.
In the case of `CS[C@@H](C1C[C@@H](C)[C@H]2C(O1)[C@H](O)[C@@]1(C)C3CC[C@H]4C(C)(C)C(O)CC[C@@]45C[C@@]35CC[C@]21C)C(C)(C)O` (stereo partly drawn), the IC50 in the test with Aβ-38 (read-out: 50% reduction value) was less than 1000 nM; in the test with Aβ-42 (read-out: 50% reduction value) it was 1000 to 10000 nM; in the test on Aβ-40 (read-out: 50% reduction value), greater than 10000 nM.
`C[C@@H]1CC([C@H]([S+](C)[O-])C(C)(C)O)OC2[C@H]1[C@@]1(C)CC[C@@]34C[C@@]35CCC(O)C(C)(C)[C@@H]5CCC4[C@]1(C)[C@H]2O` (stereo partly drawn): the IC50 in the test with Aβ-38 (read-out: 50% reduction value) lay within 1000 to 10000 nM. For the same compound, the inhibition at 20 µM was 25 to 75% in the test on Aβ-42 and 25 to 75% in the test with Aβ-40 (Aβ-40, 20 μM).
For `C[C@@H]1CC([C@@H](C(C)(C)O)S(C)(=O)=O)OC2[C@H]1[C@@]1(C)CC[C@@]34C[C@@]35CCC(O)C(C)(C)[C@@H]5CCC4[C@]1(C)[C@H]2O` (stereo partly drawn), in the test on Aβ-38 (read-out: 50% reduction value), the IC50 is 1000 to 10000 nM. For the same compound, the inhibition at 20 µM is 25 to 75% in the test with Aβ-42 and 25 to 75% with Aβ-40 (Aβ-40, 20 μM).
